# From patent publication US20240368214A1, “POSITIVE NMDA-MODULATING COMPOUNDS AND METHODS OF USE THEREOF” (SAGE THERAPEUTICS, INC., priority 2021, published 2024)
# Like-named read-outs stand apart in the source and are kept apart here.
# Biological target: T1, recombinant human GluN1/GluN2A receptor (Homo sapiens, UniProt Q05586+Q12879)
# T1 construct: expressed in transfected cells; host or cells: HEK293, tetracycline-inducible expression
# Experiment: Whole-cell patch clamp of mammalian cells (Syncropatch 384i), NMDA modulation
# Assay type: cell-based
# In short: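 Modulation read as fold rise in peak current, (Icomp/Icontrol)−1, from 8 concentrations with ≥2 wells each, four-parameter fit. Compound pre-incubated 120 s then co-applied with 1 μM glutamate plus 100 μM glycine; tetracycline-inducible HEK293 GluN1/GluN2A cells clamped at −80 mV.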
# [1] = Table B-2, HEK293 cells, human GluN1/GluN2A, glutamate 1 μM / glycine 100 μM, -80 mV, peak amplitude increase
# [2] = Table B-2, HEK293 cells, human GluN1/GluN2A, glutamate 1 μM / glycine 100 μM, -80 mV, peak amplitude increase, read-out: EC50
# [3] = Table C-2, HEK293 cells, human GluN1/GluN2A, glutamate 1 μM / glycine 100 μM, -80 mV, peak amplitude increase
# [4] = Table C-2, HEK293 cells, human GluN1/GluN2A, glutamate 1 μM / glycine 100 μM, -80 mV, peak amplitude increase, read-out: EC50
# T1 sequence (Q12879 23-1464, other chains not shown): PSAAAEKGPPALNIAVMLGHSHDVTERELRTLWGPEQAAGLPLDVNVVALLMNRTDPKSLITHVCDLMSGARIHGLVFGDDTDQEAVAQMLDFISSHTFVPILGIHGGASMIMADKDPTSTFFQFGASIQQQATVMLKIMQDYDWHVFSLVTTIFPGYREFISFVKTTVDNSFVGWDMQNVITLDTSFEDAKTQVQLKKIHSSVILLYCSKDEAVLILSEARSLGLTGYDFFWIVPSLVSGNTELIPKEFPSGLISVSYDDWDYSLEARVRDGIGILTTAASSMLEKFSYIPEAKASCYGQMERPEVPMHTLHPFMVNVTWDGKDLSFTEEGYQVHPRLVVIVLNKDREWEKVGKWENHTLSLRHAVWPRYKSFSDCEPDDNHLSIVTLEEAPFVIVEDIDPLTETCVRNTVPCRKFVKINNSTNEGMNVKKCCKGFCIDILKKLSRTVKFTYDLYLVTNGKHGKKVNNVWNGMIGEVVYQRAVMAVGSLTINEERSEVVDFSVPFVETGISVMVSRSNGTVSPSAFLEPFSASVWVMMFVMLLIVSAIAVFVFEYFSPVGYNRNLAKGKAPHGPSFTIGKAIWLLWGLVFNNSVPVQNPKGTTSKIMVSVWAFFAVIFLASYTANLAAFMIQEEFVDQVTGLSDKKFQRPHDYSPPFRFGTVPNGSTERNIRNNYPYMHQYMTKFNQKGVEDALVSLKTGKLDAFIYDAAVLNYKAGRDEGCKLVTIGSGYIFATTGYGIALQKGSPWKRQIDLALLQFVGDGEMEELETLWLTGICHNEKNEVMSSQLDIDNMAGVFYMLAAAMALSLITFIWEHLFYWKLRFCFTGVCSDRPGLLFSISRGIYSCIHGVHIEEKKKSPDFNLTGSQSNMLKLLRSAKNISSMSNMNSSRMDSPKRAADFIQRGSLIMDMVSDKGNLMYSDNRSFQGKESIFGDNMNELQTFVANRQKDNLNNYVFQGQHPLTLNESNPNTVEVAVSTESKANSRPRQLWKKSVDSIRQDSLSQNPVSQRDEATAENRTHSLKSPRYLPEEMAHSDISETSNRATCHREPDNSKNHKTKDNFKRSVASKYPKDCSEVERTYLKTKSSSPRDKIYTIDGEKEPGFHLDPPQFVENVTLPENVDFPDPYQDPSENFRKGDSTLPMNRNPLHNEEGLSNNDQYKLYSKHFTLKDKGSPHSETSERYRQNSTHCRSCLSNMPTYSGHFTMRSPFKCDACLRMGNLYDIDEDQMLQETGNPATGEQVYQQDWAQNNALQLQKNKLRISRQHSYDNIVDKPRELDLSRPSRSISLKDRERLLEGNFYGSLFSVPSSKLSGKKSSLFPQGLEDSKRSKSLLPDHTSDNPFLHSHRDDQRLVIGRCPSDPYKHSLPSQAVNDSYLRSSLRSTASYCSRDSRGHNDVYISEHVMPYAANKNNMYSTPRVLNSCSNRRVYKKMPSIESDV
SMILES,Emax [1] [%],EC50 [2] [nM],Emax [3] [%],EC50 [4] [nM],EC50 [nM]
"CC[C@]1(O)CC[C@@]2(C)[C@@H](CC[C@@H]3[C@@H]2CC[C@]2(C)[C@@H]([C@H](C)CCCC(C)(C)O)[C@H](C)C[C@@H]32)C1 [Compound B-22, (3S,5S,8R,9S,10S,13S,14S,16R,17S)-3-ethyl-17-((R)-6-hydroxy-6-methylheptan-2-yl)-10,13,16-trimethylhexadecahydro-1H-cyclopenta[a]phenanthren-3-ol]",> 200,100 to 500,–,–,–
"CC[C@]1(O)CC[C@@]2(C)[C@@H](CC[C@@H]3[C@@H]2CC[C@]2(C)[C@@H]([C@H](C)CC[C@H](O)C(C)C)[C@H](C)C[C@@H]32)C1 [Compound B-23, (3S,5S,8R,9S,10S,13S,14S,16R,17S)-3-ethyl-17-((2R,5S)-5-hydroxy-6-methylheptan-2-yl)-10,13,16-trimethylhexadecahydro-1H-cyclopenta[a]phenanthren-3-ol]",> 200,1 to 100,–,–,–
"CC[C@]1(O)CC[C@@]2(C)[C@@H](CC[C@@H]3[C@@H]2CC[C@]2(C)[C@@H]([C@H](C)CC[C@@H](O)C(C)C)[C@H](C)C[C@@H]32)C1 [Compound B-24, (3S,5S,8R,9S,10S,13S,14S,16R,17S)-3-ethyl-17-((2R,5R)-5-hydroxy-6-methylheptan-2-yl)-10,13,16-trimethylhexadecahydro-1H-cyclopenta[a]phenanthren-3-ol]",> 200,100 to 500,–,–,–
"CC[C@]1(O)CC[C@@]2(C)[C@@H](CC[C@@H]3[C@@H]2CC[C@]2(C)[C@@H]([C@H](C)CC[C@@H](O)C(C)(C)C#N)CC[C@@H]32)C1 [Compound C-1, (3R,6R)-6-((3S,5S,8R,9S,10S,13R,14S,17R)-3-ethyl-3-hydroxy-10,13-dimethylhexadecahydro-1H-cyclopenta[a]phenanthren-17-yl)-3-hydroxy-2,2-dimethylheptanenitrile]",–,–,> 200,1 to 100,–
"CC[C@]1(O)CC[C@@]2(C)[C@@H](CC[C@@H]3[C@@H]2CC[C@]2(C)[C@@H]([C@H](C)CC[C@H](O)C(C)(C)C#N)CC[C@@H]32)C1 [Compound C-2, (3S,6R)-6-((3S,5S,8R,9S,10S,13R,14S,17R)-3-ethyl-3-hydroxy-10,13-dimethylhexadecahydro-1H-cyclopenta[a]phenanthren-17-yl)-3-hydroxy-2,2-dimethylheptanenitrile]",–,–,100 to 200,1 to 100,–
"CC[C@]1(O)CC[C@@]2(C)[C@@H](CC[C@@H]3[C@@H]2CC[C@]2(C)[C@@H]([C@H](C)CC[C@@H](O)C4(C#N)CC4)CC[C@@H]32)C1 [Compound C-3, 1-((1R,4R)-4-((3S,5S,8R,9S,10S,13R,14S,17R)-3-ethyl-3-hydroxy-10,13-dimethylhexadecahydro-1H-cyclopenta[a]phenanthren-17-yl)-1-hydroxypentyl)cyclopropanecarbonitrile]",–,–,> 200,1 to 100,–
"CC[C@]1(O)CC[C@@]2(C)[C@@H](CC[C@@H]3[C@@H]2CC[C@]2(C)[C@@H]([C@H](C)CC[C@H](O)C4(C#N)CC4)CC[C@@H]32)C1 [Compound C-4, 1-((1S,4R)-4-((3S,5S,8R,9S,10S,13R,14S,17R)-3-ethyl-3-hydroxy-10,13-dimethylhexadecahydro-1H-cyclopenta[a]phenanthren-17-yl)-1-hydroxypentyl)cyclopropanecarbonitrile]",–,–,< 100,100 to 500,–
"CC[C@H](C#N)[C@H](O)CC[C@@H](C)[C@H]1CC[C@H]2[C@@H]3CC[C@H]4C[C@](O)(CC)CC[C@]4(C)[C@H]3CC[C@]12C [Compound C-5, (2R,3R,6R)-2-ethyl-6-((3S,5S,8R,9S,10S,13R,14S,17R)-3-ethyl-3-hydroxy-10,13-dimethylhexadecahydro-1H-cyclopenta[a]phenanthren-17-yl)-3-hydroxyheptanenitrile]",–,–,> 200,1 to 100,–
"CC[C@H](C#N)[C@@H](O)CC[C@@H](C)[C@H]1CC[C@H]2[C@@H]3CC[C@H]4C[C@](O)(CC)CC[C@]4(C)[C@H]3CC[C@]12C [Compound C-6, (2R,3S,6R)-2-ethyl-6-((3S,5S,8R,9S,10S,13R,14S,17R)-3-ethyl-3-hydroxy-10,13-dimethylhexadecahydro-1H-cyclopenta[a]phenanthren-17-yl)-3-hydroxyheptanenitrile]",–,–,100 to 200,100 to 500,–
"CC[C@@H](C#N)[C@H](O)CC[C@@H](C)[C@H]1CC[C@H]2[C@@H]3CC[C@H]4C[C@](O)(CC)CC[C@]4(C)[C@H]3CC[C@]12C [Compound C-7, (2S,3R,6R)-2-ethyl-6-((3S,5S,8R,9S,10S,13R,14S,17R)-3-ethyl-3-hydroxy-10,13-dimethylhexadecahydro-1H-cyclopenta[a]phenanthren-17-yl)-3-hydroxyheptanenitrile]",–,–,> 200,1 to 100,–
"CC[C@@H](C#N)[C@@H](O)CC[C@@H](C)[C@H]1CC[C@H]2[C@@H]3CC[C@H]4C[C@](O)(CC)CC[C@]4(C)[C@H]3CC[C@]12C [Compound C-8, (25,3S,6R)-2-ethyl-6-((3S,5S,8R,9S,10S,13R,14S,17R)-3-ethyl-3-hydroxy-10,13-dimethylhexadecahydro-1H-cyclopenta[a]phenanthren-17-yl)-3-hydroxyheptanenitrile]",–,–,< 100,1 to 100,–
"COC[C@]1(O)CC[C@@]2(C)[C@@H](CC[C@@H]3[C@@H]2CC[C@]2(C)[C@@H]([C@H](C)CC[C@@H](O)C(C)(C)C#N)CC[C@@H]32)C1 [Compound C-9, (3R,6R)-3-hydroxy-6-((3S,5S,8R,9S,10S,13R,14S,17R)-3-hydroxy-3-(methoxymethyl)-10,13-dimethylhexadecahydro-1H-cyclopenta[a]phenanthren-17-yl)-2,2-dimethylheptanenitrile]",–,–,< 100,1 to 100,–
"CC[C@]1(O)CC[C@@]2(C)[C@@H](CC[C@@H]3[C@@H]2CC[C@]2(C)[C@@H]([C@H](C)CC[C@H](O)CC#N)CC[C@@H]32)C1 [Compound C-10, (3S,6R)-6-((3S,5S,8R,9S,10S,13R,14S,17R)-3-ethyl-3-hydroxy-10,13-dimethylhexadecahydro-1H-cyclopenta[a]phenanthren-17-yl)-3-hydroxyheptanenitrile]",–,–,< 100,100 to 500,–
"CC[C@]1(O)CC[C@@]2(C)[C@@H](CC[C@@H]3[C@@H]2CC[C@]2(C)[C@@H]([C@H](C)CC[C@@H](O)CC#N)CC[C@@H]32)C1 [Compound C-11, (3R,6R)-6-((3S,5S,8R,9S,10S,13R,14S,17R)-3-ethyl-3-hydroxy-10,13-dimethylhexadecahydro-1H-cyclopenta[a]phenanthren-17-yl)-3-hydroxyheptanenitrile]",–,–,100 to 200,1 to 100,–
CC[C@]1(O)CC[C@@]2(C)C(=CC[C@H]3[C@@H]4CC[C@H]([C@H](C)CC[C@@H](O)C(C)(C)C#N)[C@@]4(C)CC[C@@H]32)C1 [Compound C-12],–,–,> 200,–,1 to 100
"CC[C@]1(O)CC[C@@]2(C)C(=CC[C@H]3[C@@H]4CC[C@H]([C@H](C)CC[C@H](O)C(C)(C)C#N)[C@@]4(C)CC[C@@H]32)C1 [Compound C-13, (3S,6R)-6-((3S,8S,9S,10R,13R,14S,17R)-3-ethyl-3-hydroxy-10,13-dimethyl-2,3,4,7,8,9,10,11,12,13,14,15,16,17-tetradecahydro-1H-cyclopenta[a]phenanthren-17-yl)-3-hydroxy-2,2-dimethylheptanenitrile]",–,–,100 to 200,1 to 100,–
"CC[C@]1(O)CC[C@@]2(C)C(=CC[C@H]3[C@@H]4CC[C@H]([C@H](C)CC[C@H](O)C5(C#N)CCC5)[C@@]4(C)CC[C@@H]32)C1 [Compound C-18, 1-((1S,4R)-4-((3S,8S,9S,10R,13R,14S,17R)-3-ethyl-3-hydroxy-10,13-dimethyl-2,3,4,7,8,9,10,11,12,13,14,15,16,17-tetradecahydro-1H-cyclopenta[a]phenanthren-17-yl)-1-hydroxypentyl)cyclobutane-1-carbonitrile]",–,–,–,100 to 500,–
"CC[C@]1(O)CC[C@@]2(C)C(=CC[C@H]3[C@@H]4CC[C@H]([C@H](C)CC[C@@H](O)C5(C#N)CCC5)[C@@]4(C)CC[C@@H]32)C1 [Compound C-19, 1-((1R,4R)-4-((3S,8S,9S,10R,13R,14S,17R)-3-ethyl-3-hydroxy-10,13-dimethyl-2,3,4,7,8,9,10,11,12,13,14,15,16,17-tetradecahydro-1H-cyclopenta[a]phenanthren-17-yl)-1-hydroxypentyl)cyclobutane-1-carbonitrile]",–,–,–,1 to 100,–
"CC[C@]1(O)CC[C@@]2(C)C(=CC[C@H]3[C@@H]4CC[C@H]([C@H](C)CC[C@H](O)C5(C#N)CC5)[C@@]4(C)CC[C@@H]32)C1 [Compound C-20, 1-((1S,4R)-4-((3S,8S,9S,10R,13R,14S,17R)-3-ethyl-3-hydroxy-10,13-dimethyl-2,3,4,7,8,9,10,11,12,13,14,15,16,17-tetradecahydro-1H-cyclopenta[a]phenanthren-17-yl)-1-hydroxypentyl)cyclopropane-1-carbonitrile]",–,–,–,100 to 500,–
